Results as given in US20260206761A1, “HETEROARYL-TRIAZOLE COMPOUNDS AS PESTICIDES” (Bayer Aktiengesellschaft, priority 2019, published 2026).

Legend:
Assay type in all cases: in vivo
[1] = test system: larvae of the southern green stink bug (Nezara viridula); assay: Nezara viridula spray test; conditions: 96 h, after 4 days; for mortality at 100 g/ha: application rate 100 g/ha; for mortality at 500 g/ha: application rate 500 g/ha
Summary of the method: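 Larva-infested barley (Hordeum vulgare) plants received a spray of test solution prepared from an acetone/DMF concentrate diluted in emulsifier-containing water (1000 ppm). Percent kill read 4 days later; 0% means no stink bugs dead.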

[2] = test system: adult cat fleas (Ctenocephalides felis); assay: Ctenocephalides felis in-vitro contact test, adult cat flea; conditions: application rate 5 μg/cm^2 (=500 g/ha), after 48 hours, read-out: activity (efficacy: fleas dead or moribund)
Summary of the method: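 Efficacy, as % of fleas dead or moribund, was read 48 h after 5-10 adult cat fleas were confined in glass tubes whose walls carried dried compound film (900 ppm, […]). Fleas failing to escape upward from a 45-50° C plate within 5 min counted as dead or moribund.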

[3] = test system: green peach aphid (Myzus persicae); assay: Myzus persicae oral test; conditions: 120 h, application rate 4 ppm, after 5 days
Summary of the method: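 Aphids of mixed population ingest the compound preparation by sucking through a parafilm sheet stretched over wells holding test solution plus IPL41 insect medium (33%+15% sugar). Kill rate in percent is determined five days later.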

[4] = test system: Rhipicephalus microplus larvae (strain Parkhurst, resistant against synthetic pyrethroids); assay: Rhipicephalus (Boophilus) microplus in-vitro contact test, larval cattle tick; conditions: after 48 hours, read-out: activity (efficacy: larvae dead or moribund); for pest or weed control at 100 g/ha: application rate 1 pg/cm^2 (=100 g/ha); for pest or weed control at 500 g/ha: application rate 5 pg/cm^2 (=500 g/ha)
Summary of the method: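 Larvae (20-50 per tube) exposed to dry compound film on glass tube walls, 5 μg/cm^2 at 900 ppm, applied from acetone. After 48 h at 27° C./85% RH, tubes tapped and negative geotaxis scored; efficacy as percent dead or moribund larvae.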

[5] = test system: adult brown dog ticks (Rhipicephalus sanguineus); assay: Rhipicephalus sanguineus in-vitro contact test, adult brown dog ticks; conditions: after 48 hours, read-out: activity (efficacy: ticks dead or moribund); for pest or weed control at 100 g/ha: application rate 1 pg/cm^2 (=100 g/ha); for pest or weed control at 5 µg/cm2, 500 g/ha: application rate 5 μg/cm^2 (=500 g/ha)
Summary of the method: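 Read-out: % efficacy as dead or moribund ticks, judged 48 h after exposure by failure to climb away from a 45-50° C heating plate within 5 min. Tubes were coated with acetone solution (900 ppm = 5 μg/cm^2 surface dose) and held 5-10 adults each at room temperature.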

[6] = test system: adult engorged female ticks (Rhipicephalus microplus); assay: Rhipicephalus (Boophilus) microplus injection test; conditions: 168 h, egg deposition after 7 days, read-out: activity (efficacy: infertile eggs); for pest or weed control at 4 pg: application rate 4 pg/animal; for pest or weed control at 0.02 mg: application rate 20 μg/animal
Summary of the method: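 Abdominal injection, 1 μL compound/DMSO, n=5 engorged adult females; climate-chamber incubation. Readout d7: fertile egg laying; doubtful eggs held to hatch (~42 d). % efficacy = infertile eggs (100% all infertile).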

[7] = test system: fall armyworm larvae (Spodoptera frugiperda); assay: Spodoptera frugiperda spray test; conditions: 168 h, read-out: activity (mortality)
Summary of the method: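 Larvae of fall armyworm placed on dried maize leaf sections previously sprayed with emulsified compound (acetone/DMF solvent, water with 1000 ppm emulsifier). Percent of caterpillars killed recorded on day 7, 0–100% scale.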

[8] = test system: larvae of the banded cucumber beetle (Diabrotica balteata); assay: Diabrotica balteata spray test; conditions: 168 h, application rate 100 g/ha (=32 pg/well), after 7 days, read-out: activity (efficacy: seedlings grown)
Summary of the method: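 Read-out is % efficacy at day 7, 0% meaning no seedling growth and 100% growth equal to uninfested untreated controls. Test solutions (acetone/DMF concentrate diluted with water carrying 1000 ppm emulsifier) were sprayed onto 1-day-germinated wheat seeds, 5 per well, before infestation with 10-20 larvae.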

[9] = test system: adult unfed cat fleas (Ctenocephalides felis); assay: Ctenocephalides felis oral test; conditions: 48 h, read-out: activity (mortality)
Summary of the method: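 About 20 adult unfed fleas fed through parafilm on cattle blood containing compound (DMSO stock diluted in blood), blood held at 37 °C and fleas at room temperature. Mortality (%) scored after 2 days.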

[10] = test system: southern root-knot nematode (Meloidogyne incognita); assay: Meloidogyne incognita test; conditions: 336 h, application rate 20 ppm, after 14 days, read-out: nematicidal activity (based on gall formation)
Method: Meloidoyne incognita—Test
Solvent: 125.0 parts by weight of acetone
To produce a suitable preparation of active compound, 1 part by weight of active compound is mixed with the stated amount of solvent, and the concentrate is diluted with water to the desired concentration.
Vessels are filled with sand, a solution of the active ingredient, a suspension containing eggs and larvae of the southern root-knot nematode (Meloidogyne incognita) and salad seeds. The salad seeds germinate and the seedlings grow. Galls develop in the roots.
After 14 days the nematicidal activity is determined based on the percentage of gall formation. 100% means no galls were found and 0% means the number of galls found on the roots of the treated plants was equal to that in untreated control plants.

[11] = test system: green peach aphid (Myzus persicae); assay: Myzus persicae spray test; conditions: 120 h, application rate 100 g/ha, after 5 days
Summary of the method: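 Chinese cabbage leaf disks carrying all instars of M. persicae sprayed with compound in acetone/DMF, diluted in water with 1000 ppm alkylarylpolyglycol ether emulsifier. Percent mortality scored after 5 days (100% = all aphids killed).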

[12] = test system: Culex quinquefasciatus strain P00; assay: Culex quinquefasciatus test (CULXFA surface treatment & contact assay); conditions: 24 hours after contact, read-out: efficacy (mortality)
Method: Culex quinquefasciatus Test (CULXFA Surface Treatment & Contact Assay)
Solvent: Aceton+2000 ppm rapeseed oil methyl ester (RME)
In order to produce a sufficient, active ingredient containing solution it is necessary to solve the test compound in the solvent-mix (acetone at 2 mg/ml/RME 2 000 ppm). This solution is pipetted onto a glazed tile and after evaporation of the acetone, adult mosquitoes of the species Culex quinquefasciatus strain P00 are placed onto the dried surface. The exposure time is 30 minutes. Mortality in percent (%) is determined 24 hours after contact of the insects to the treated surface. 100% mortality means that all tested insects are dead, whereas 0% means that no insect died.

[13] = test system: Aedes aegypti strain MONHEIM; assay: Aedes aegypti test (AEDSAE surface treatment & contact assay); conditions: 24 hours after contact, read-out: efficacy (mortality); for mortality at 20 mg/m2: surface concentration 20 mg/m^2, exposure 30 minutes; for mortality at 4 mg/m2: surface concentration 4 mg/m^2, exposure 30 minutes
Summary of the method: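 Percent mortality was read 24 h after adult MONHEIM mosquitoes were held for 30 min on a tile treated with compound. Compound applied from acetone solution (2 mg/ml) containing 2000 ppm rapeseed oil methyl ester, after evaporation.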

[14] = test system: cattle ticks (Rhipicephalus microplus) strain Parkhurst, SP-resistant; assay: Rhipicephalus (Boophilus) microplus dip test; conditions: 168 h, application rate 100 ppm, egg deposition after 7 days, read-out: activity (efficacy: infertile eggs)
Method: Rhipicephalus (Boophilus) microplus—Din Test
Test animal: cattle ticks (Rhipicephalus microplus) strain Parkhurst, SP-resistant
Solvent: dimethyl sulfoxide
To produce a suitable preparation of active compound, 10 mg of active compound are dissolved in 0.5 mL solvent, and the concentrate is diluted with water to the desired concentration.
This compound solution is pipetted into tubes. 8-10 engorged, adult, female cattle ticks (Rhipicephalus microplus) are placed in perforated tubes. These tubes are immersed in the aqueous compound solution until the ticks are completely moistened. After the liquid has drained off, the ticks are transferred to a filter paper in a plastic tray and stored in a climate chamber.
After 7 days egg deposition of fertile eggs is monitored. Eggs where fertility is not visible are stored in a climate chamber till hatching after about 42 days. An efficacy of 100% means all eggs are infertile; 0% means all eggs are fertile.

SMILES | mortality at 100 g/ha [1] | pest or weed control at 5 µg/cm2 [2] | mortality at 4 ppm [3] | pest or weed control at 100 g/ha [4] | pest or weed control at 500 g/ha [4] | pest or weed control at 100 g/ha [5] | pest or weed control at 5 µg/cm2, 500 g/ha [5] | pest or weed control at 4 pg [6] | mortality at 100 g/ha [7] | pest or weed control at 100 g/ha [8] | mortality at 100 ppm [9] | pest or weed control at 20 ppm [10] | pest or weed control at 0.02 mg [6] | mortality at 20 mg/m2 [13] | other results
C[C@H](NC(=O)c1cc(C(F)F)cc(C2CC2)c1)c1ncnn1-c1ccc(C#N)cn1 [II-60] | 90% | 100% | 100% | 100% | 100% | 100% | 100% | 100% | 100% | 100% | 90% | 90% | – | – | –
Cc1nc([C@H](C)NC(=O)c2cc(OC(F)F)cc(C3CC3)c2)n(-c2ccc(C#N)cn2)n1 [II-63] | – | 100% | 100% | 100% | 100% | 100% | 100% | 100% | 100% | 100% | – | 90% | – | – | mortality at 100 g/ha [11]: 100%
CC(C)c1nc([C@H](C)NC(=O)c2cc(Cl)cc(S(=O)(=O)CC(F)(F)F)c2)n(-c2ccc(C#N)cn2)n1 [I-21, 3-chloro-N-{(1S)-1-[1-(5-cyanopyridin-2-yl)-3-isopropyl-1H-1,2,4-triazol-5-yl]ethyl}-5-[(2,2,2-trifluoroethyl)sulfonyl]benzamide] | – | – | – | – | – | – | – | 100% | – | – | – | 90% | 100% | – | mortality at 100 g/ha [11]: 90%
C[C@H](NC(=O)c1cc(C(F)(F)F)cc(S(=O)(=O)C2CC2)c1)c1nc(C2CC2)nn1-c1ccc(C#N)cn1 [I-15] | – | – | 100% | 100% | 100% | 100% | 100% | 100% | 100% | – | 100% | – | 100% | 80 to 100% | mortality at 4 mg/m2 ([12]; surface concentration 4 mg/m^2, exposure 30 minutes): 80 to 100%; pest or weed control at 100 ppm [14]: 80%
CCS(=O)(=O)c1cc(Cl)cc(C(=O)N[C@@H](C)c2ncnn2-c2ccc(C#N)cn2)c1 [II-20] | 100% | 100% | 100% | 100% | 100% | – | – | 100% | 83% | – | – | 90% | 100% | 80 to 100% | mortality at 20 mg/m2 ([12]; surface concentration 20 mg/m^2, exposure 30 minutes): 80 to 100%; mortality at 500 g/ha [1]: 100%; mortality at 4 mg/m2 [13]: 80 to 100%; mortality at 500 g/ha [7]: 100%
CC(C)c1nc([C@H](C)NC(=O)c2cc(Cl)cc(S(=O)(=O)C3CC3)c2)n(-c2ccc(C#N)cn2)n1 [I-18] | – | – | 100% | 90% | 90% | – | 100% | 100% | – | 100% | 80% | 100% | 100% | – | –
C[C@H](NC(=O)c1cc(Cl)cc(S(=O)(=O)C2CC2)c1)c1nc(C2CC2)nn1-c1ccc(C#N)cn1 [I-22] | – | – | 100% | 100% | 100% | – | 80% | 100% | 100% | 100% | 100% | 100% | 100% | – | –
C[C@H](NC(=O)c1cc(Cl)cc(S(=O)(=O)C2CC2)c1)c1ncnn1-c1ccc(C#N)cn1 [II-21] | 90% | 100% | 100% | 100% | 100% | – | – | 100% | 100% | – | – | 90% | 100% | 80 to 100% | mortality at 500 g/ha [1]: 100%; mortality at 4 mg/m2 [13]: 80 to 100%; mortality at 500 g/ha [7]: 100%
